The subject of assay [1] is E. coli. The assay is classed as cell-based. As to the method: The following samples were prepared to measure the oxidation capability: sodium hypochlorite converted concentration and phenol coefficient for each of the chlorine oxides.
These samples were used to measure the oxidation capability: sodium hypochlorite converted concentration and phenol coefficient while appropriately dilution with ion exchange water.
The following sample was prepared. The oxidation capability and phenol coefficient were measured immediately after manufacture and on day 5.
They were compared based on dissolved chlorine dioxide as the control.

In assay [2] the test system is E. coli. The experiment in a line: Phenol coefficient method. The assay is classed as cell-based.
Description: The following is the operation method thereof.
5% phenol solution: Phenol is dissolved with hot water of about 70° C. 25 mL is measured out and precisely diluted to 500 mL with water (40° C.). The specific gravity at 20° C. is confirmed to be within the range of 1.000±0.005.
Liquid medium (1 L volume): 18.0 g of normal broth medium is added to 1 L of water in a 1000 mL Erlenmeyer flask with a stopper. They are mixed and dissolved for about 30 minutes at normal temperature.
Liquid medium (volume of 200 mL): about 18.0 g of normal broth medium is added to 1 L of water. They were mixed and dissolved for about 30 minutes at normal temperature.
Liquid medium (test tube): about 18.0 g of normal broth medium is added to 1 L of water. […]
The inoculated test tube is placed in a vortex mixer and sealed, and incubated for 24 hours at 37° C. Test segments observed to have opacity after incubation are recorded as “+” and test segments without opacity are recorded as “−”. However, a cotton swab is immersed in the liquid medium of the test segments evaluated as “+”, and the medium is smeared onto a desoxycholate medium (flat plate) from the center to the outside so as to draw a straight line. […]
After culturing for a predetermined time, samples observed to have a typical red colony where the medium was smeared are evaluated as “+”, and samples with no observed red colony is evaluated as “−”. […]

Where two headings read alike, the source gives them in different places.

Take `[O][Cl+][O-]` [Dissolved chlorine dioxide]: the “Oxidation capability: sodium hypochlorite converted concentration at each phenol coefficient” value amounted to 0 in assay [1] (phenol coefficient 0); 139 in assay [1] (phenol coefficient 1); 279 in assay [1] (phenol coefficient 2); 418 in assay [1] (phenol coefficient 3); 697 in assay [1] (phenol coefficient 5); 1395 in assay [1] (phenol coefficient 10). For the same molecule, the “Oxidation capability: sodium hypochlorite converted concentration at each phenol coefficient” value in assay [1] (phenol coefficient 15) is recorded as 2092; in assay [1] (phenol coefficient 25), 3487.
In assay [2] (available chlorine concentration of 25% (w/v), saturation concentration), sodium chlorite returned a phenol coefficient of 0. Besides, the “phenol coefficient per oxidation capability (100)” value in assay [2] (phenol coefficient divided by oxidation capability and multiplied by 100, from the values of Example 1) came to 0. Moreover, the “Oxidation capability: sodium hypochlorite converted concentration at each phenol coefficient” value in assay [1] (phenol coefficient 0) was 0; in assay [1] (phenol coefficient 1), “nonexistent”; in assay [1] (phenol coefficient 2), “nonexistent”; in assay [1] (phenol coefficient 3), “nonexistent”; in assay [1] (phenol coefficient 5) it was “nonexistent”; in assay [1] (phenol coefficient 10), “nonexistent”. Moreover, the “Oxidation capability: sodium hypochlorite converted concentration at each phenol coefficient” value in assay [1] (phenol coefficient 15) and in assay [1] (phenol coefficient 25) was “nonexistent” in each case.

(Values after patent US11912569B2, “Method for manufacturing chlorous acid water using raw material obtained by salt electrolysis” (HONBUSANKEI CO., LTD., priority 2016, dated 2024).)
